Measurements published in patent US20130344166A1, “TOPICAL MIXTURE AND METHOD FOR DERMAL APPLICATION TO REMOVE EXCESS IRON AND OTHER HEAVY METALS FROM CELLULAR TISSUE” (priority 2012, published 2013).

How the values were obtained:
[1] = system: excess Iron within the cells; test: Tests of trivalent Chromium on excess Iron within the cells of humans; assay type: in vivo; conditions: absorbed into the bloodstream and delivered to the individual cells of humans
Excerpt: Also included in the present invention is trivalent Chromium. As currently contemplated, the Chromium will be in the form of Chromium Picolinate, Chromium Polynicotinate, or Chromium Chloride. The essential element is trivalent Chromium. The choice of Chromium Picolinate, Chromium Polynicotinate, or Chromium Chloride has been made by the inventors because they are readily, commercially available in most health food stores, pharmacies, and other sources of dietary supplements. […] This is a desirable treatment for people suffering from Diabetes and there are currently studies, which indicate that “Iron Loading” can possibly be attached to the occurrence of cancer. A possible alternative or compliment to the Chromium of the present invention is Vanadium in the form of Vanadyl Sulfate. A combination of both Chromium and Vanadium compounds have been utilized in some tests with desirable results.

[2] = Blood sugar level of a patient after application of the topical mixture to the skin; assay type: in vivo, human; conditions: presence of L-Histidine in the mixture
Excerpt: The present invention is best practiced by application of the trivalent Chromium composition at least twice daily. Preferably the application will be made before sleep and early in the morning ideally before exercise. Although the present invention may be applied to the entire body it is recommended it be applied to the legs and groin area where easy access to a large number of blood vessels can be achieved. Additionally, the legs and groin area contained some of the most exercised muscles in the human body. An alternative carrier base can be achieved through infusion of the trivalent Chromium and other elements into a bar of soap so as to achieve even distribution over the entire body. FIGS. 1 and 2 and the charts below show the blood sugar level of a patient utilizing the present invention in accordance with the formulation set above. The blood sugar level can be seen to drop dramatically after application of the present invention to the surface of the skin.

Molecule | levels of excess Iron within the cells [1] | levels of blood sugar in patients [2]
trivalent Chromium | reduces the levels of excess Iron within the cells | 
N[C@@H](Cc1c[nH]cn1)C(=O)O [L-Histidine] |  | beneficial to lowering the levels of blood sugar
